Results reported in the NIST ThermoML archive (doi:10.1016/j.jct.2013.04.015).

Assay: xn = mol fraction of the nth substance listed
Conditions: for surface tension liquid-gas: Wilhelmy plate method; for mass density: 101 kPa, Liquid, Vibrating tube method

CCCCn1cc[n+](C)c1.C[C@H](O)C(=O)[O-] [1-butyl-3-methylimidazolium L-lactate] + CO
Conditions	mass density [kg/m3]	surface tension liquid-gas [mN/m]
298.15 K, x1 = 0.0121	–	23.38
298.15 K, x1 = 0.0353	–	24.72
298.15 K, x1 = 0.0496	–	25.63
298.15 K, x1 = 0.0699	–	26.72
298.15 K, x1 = 0.0901	–	28.06
298.15 K, x1 = 0.0998	960.5	–
298.15 K, x1 = 0.1051	–	28.6
298.15 K, x1 = 0.1968	1022.4	–
298.15 K, x1 = 0.1995	–	31.01
298.15 K, x1 = 0.3	1063.1	–
298.15 K, x1 = 0.3011	–	33.55
298.15 K, x1 = 0.3999	1075.9	–
298.15 K, x1 = 0.4038	–	35.7
298.15 K, x1 = 0.5	1082.9	–
298.15 K, x1 = 0.5029	–	36.97
298.15 K, x1 = 0.5996	1088	–
298.15 K, x1 = 0.614	–	38.06
298.15 K, x1 = 0.7001	1090.5	–
298.15 K, x1 = 0.7037	–	38.57
298.15 K, x1 = 0.8002	1091.5	–
298.15 K, x1 = 0.8056	–	39.25
298.15 K, x1 = 0.8988	1097.8	–
298.15 K, x1 = 0.9152	–	40.89
298.15 K, x1 = 1	1111.2	42.92
308.15 K, x1 = 0.0115	–	22.56
308.15 K, x1 = 0.0346	–	24.12
308.15 K, x1 = 0.0544	–	25.1
308.15 K, x1 = 0.0702	–	26.05
308.15 K, x1 = 0.091	–	27.26
308.15 K, x1 = 0.0998	956.6	–
308.15 K, x1 = 0.1058	–	28.32
308.15 K, x1 = 0.1968	1019.4	–
308.15 K, x1 = 0.2002	–	30.7
308.15 K, x1 = 0.3	1057.4	–
308.15 K, x1 = 0.3033	–	33.15
308.15 K, x1 = 0.3999	1070.5	–
308.15 K, x1 = 0.4003	–	35.37
308.15 K, x1 = 0.5	1077.4	–
308.15 K, x1 = 0.5032	–	36.69
308.15 K, x1 = 0.5913	–	37.46
308.15 K, x1 = 0.5996	1084.2	–
308.15 K, x1 = 0.7001	1085.4	–
308.15 K, x1 = 0.7064	–	37.66
308.15 K, x1 = 0.791	–	38.03
308.15 K, x1 = 0.8002	1087.2	–
308.15 K, x1 = 0.8938	–	39.37
308.15 K, x1 = 0.8988	1089	–
308.15 K, x1 = 1	1104.2	42.37
318.15 K, x1 = 0.0118	–	21.91
318.15 K, x1 = 0.0364	–	23.48
318.15 K, x1 = 0.0527	–	24.57
318.15 K, x1 = 0.0711	–	25.49
318.15 K, x1 = 0.0907	–	26.91
318.15 K, x1 = 0.0998	953.2	–
318.15 K, x1 = 0.1085	–	27.8
318.15 K, x1 = 0.1968	1014.3	–
318.15 K, x1 = 0.2003	–	29.96
318.15 K, x1 = 0.3	1051.9	–
318.15 K, x1 = 0.302	–	32.56
318.15 K, x1 = 0.3999	1066.8	–
318.15 K, x1 = 0.4072	–	35.2
318.15 K, x1 = 0.5	1074.7	–
318.15 K, x1 = 0.5096	–	36.52
318.15 K, x1 = 0.5996	1077.7	–
318.15 K, x1 = 0.6103	–	36.74
318.15 K, x1 = 0.7001	1078	–
318.15 K, x1 = 0.7054	–	36.95
318.15 K, x1 = 0.8002	1078.9	–
318.15 K, x1 = 0.8108	–	37.31
318.15 K, x1 = 0.8845	–	38.3
318.15 K, x1 = 0.8988	1079.9	–
318.15 K, x1 = 1	1097.7	42.01
